Results reported in patent US8969298B2, “Liquid preparation of physiologically active peptide” (Daiichi Sankyo Co., Ltd., priority 2004, dated 2015).

Key:
[1] = Pharmacokinetics of human ghrelin preparations intravenously, subcutaneously or intramuscularly administered to rats (plasma ghrelin by RIA); format: in vivo; settings: s.c.
Protocol: 7-week old, male SD rats (Charles River Laboratories Japan Inc.) were used. A group of three rats was used for the tests. For intravenous administration, these animals each inserted a polyethylene tube (PE-50, Clay Adams Co., Ltd.) in the femoral artery were used. Preparation No. 2 was administered through the tail vain at a dose of 0.5 mL/kg by using a syringe and a 26 G needle (each available from Terumo Co., Ltd.). Blood samples were collected from the polyethylene tube in the femoral artery before administration and 1, 3, 5, 10, 20, 30, 60, and 90 minutes after administration.
Similarly, these animals inserted a polyethylene tube in the femoral artery were used for subcutaneous administration of Preparation No. 3 in the dorsal skin at a dose of 1 mL/kg using a syringe and a 26 G needle. Blood samples were collected from the polyethylene tube in the femoral artery before administration and 5, 10, 20, and 30 minutes after administration.
To each sample, one-hundredth as much of an EDTA.2Na.2H2O solution and one-fiftieth as much of an AEBSF solution were added immediately after collection of the sample. […]
The plasma samples were then analyzed for the ghrelin levels by radioimmunoassay (RIA) using an anti-ghrelin antibody. […] The supernatant was separated and analyzed for radioactivity by a γ-counter (Packard Instruments Co., Ltd.).
The results shown in FIG. 1 were used to determine the following pharmacokinetic parameters for each injection route: the maximum plasma ghrelin concentration (Cmax) and the time it took before the maximum plasma concentration was reached (T). […] Using the trapezoidal method, the area under the concentration curve (AUC) was also calculated for each injection route. […]
As with the examples of subcutaneous administration, these rats, inserted a polyethylene tube in the femoral artery, were intramuscularly administered Preparations No. 3 and No. 13 in the femoral muscle at a dose of 1 mL/kg, using a syringe and a 26 G needle. The blood samples were collected in the same manner as in Comparative Example 2 and the plasma ghrelin levels were measured by RIA method.

[2] = Pharmacokinetics of ghrelin preparations intravenously or subcutaneously administered to cynomolgus monkeys (plasma ghrelin by ELISA); settings: cynomolgus monkey, in vivo, sc, read-out: BA of subcutaneously injected ghrelin
Protocol: Preparations No. 5 and No. 33 were subcutaneously administered to separate groups of cynomolgus monkeys and the plasma ghrelin levels were measured. Furthermore, Preparation No. 1 was intravenously administered to another group of cynomolgus monkeys. The plasma ghrelin levels were measured.
Each group consisted of three male monkeys (imported from China) aged 4 to 6 years. Preparations No. 5 and No. 33 were subcutaneously injected in the dorsal skin at a dose of 0.2 mL/body using a syringe and a 26 G needle (each available from Terumo Co., Ltd.).
Using a syringe and a 26 G needle (each available from Terumo Co., Ltd.), Preparation No. 1 was intravenously injected in the forearm vena cephalica at a dose of 2 mL/kg.
In each case, blood samples were collected from the forearm vena cephalica before administration and 5, 10, 15, 30, 40, 60, 90, and 120 minutes after administration. […]
The plasma samples were then analyzed for the ghrelin levels by Enzyme-Linked Immunosolvent Assay (ELISA) using Active Ghrelin ELISA Kit (Cat. No. MM-401, Mitsubishi Kagaku latron Inc.). […]
The results shown in FIG. 7 were used to determine Cmax and Tmax for each liquid preparation. Using the trapezoidal method, the AUC was also calculated for each preparation. […]

CCCCCCCC(=O)OC[C@H](NC(=O)[C@H](CO)NC(=O)CN)C(=O)N[C@@H](Cc1ccccc1)C(=O)N[C@@H](CC(C)C)C(=O)N[C@@H](CO)C(=O)N1CCC[C@H]1C(=O)N[C@@H](CCC(=O)O)C(=O)N[C@@H](Cc1cnc[nH]1)C(=O)N[C@@H](CCC(N)=O)C(=O)N[C@@H](CCCNC(=N)N)C(=O)N[C@H](C(=O)N[C@@H](CCC(N)=O)C(=O)N[C@@H](CCC(N)=O)C(=O)N[C@@H](CCCNC(=N)N)C(=O)N[C@@H](CCCCN)C(=O)N[C@@H](CCC(=O)O)C(=O)N[C@@H](CO)C(=O)N[C@@H](CCCCN)C(=O)N[C@@H](CCCCN)C(=O)N1CCC[C@H]1C(=O)N1CCC[C@H]1C(=O)N[C@@H](C)C(=O)N[C@@H](CCCCN)C(=O)N[C@@H](CC(C)C)C(=O)N[C@@H](CCC(N)=O)C(=O)N1CCC[C@H]1C(=O)N[C@@H](CCCNC(=N)N)C(=O)O)C(C)C [ghrelin]
BA of subcutaneously injected ghrelin [1]: at most 5%
BA of ghrelin ([1]; mixed with sodium acetate buffer (pH 4.0)): 35.3%
BA of ghrelin ([1]; mixed with urea as a solubilizing agent): 3.4%
bioavailability [2]: ≤ 3%
